Measured values from the NIST ThermoML archive (doi:10.1021/je101206u).

Assay: xn = mol fraction of the nth substance listed
Conditions: 101 kPa, Liquid

OCCO [1,2-ethanediol] + CCCCn1cc[n+](C)c1.F[B-](F)(F)F
x2 = 0
Conditions	mass density [kg/m3]	viscosity [mPa·s]
293.15 K	1113.45	21.44
303.15 K	1106.45	14.33
313.15 K	1099.38	10.01
323.15 K	1092.24	7.121
333.15 K	1085	5.33
343.15 K	1077.65	4.103
353.15 K	1070.17	3.242

CCCCn1cc[n+](C)c1.F[B-](F)(F)F [1-butyl-3-methylimidazolium tetrafluoroborate] + C[S+](C)[O-]
Conditions	mass density [kg/m3]	viscosity [mPa·s]
293.15 K, x1 = 0.0722	1120.91	3.514
293.15 K, x1 = 0.1764	1142.23	6.283
293.15 K, x1 = 0.2145	1148.47	7.911
293.15 K, x1 = 0.3225	1162.89	13.46
293.15 K, x1 = 0.4189	1172.83	20.76
293.15 K, x1 = 0.607	1186.94	42.17
293.15 K, x1 = 0.6557	1188.45	48.88
293.15 K, x1 = 0.8283	1197.44	83.33
293.15 K, x1 = 0.9155	1201.03	107.2
293.15 K, x1 = 1	1204.44	136.9
298.15 K, x1 = 0.0722	1116.22	–
298.15 K, x1 = 0.1764	1137.84	–
298.15 K, x1 = 0.2145	1144.16	–
298.15 K, x1 = 0.3225	1158.77	–
298.15 K, x1 = 0.4189	1168.84	–
298.15 K, x1 = 0.607	1182.57	–
298.15 K, x1 = 0.6557	1185.38	–
298.15 K, x1 = 0.8283	1193.78	–
298.15 K, x1 = 0.9155	1197.43	–
298.15 K, x1 = 1	1200.89	–
303.15 K, x1 = 0.0722	1111.54	2.827
303.15 K, x1 = 0.1764	1133.45	4.839
303.15 K, x1 = 0.2145	1139.87	5.968
303.15 K, x1 = 0.3225	1154.66	9.732
303.15 K, x1 = 0.4189	1164.85	14.46
303.15 K, x1 = 0.607	1179.32	27.68
303.15 K, x1 = 0.6557	1181	31.52
303.15 K, x1 = 0.8283	1190.12	51.43
303.15 K, x1 = 0.9155	1193.83	64.87
303.15 K, x1 = 1	1197.34	81.4
313.15 K, x1 = 0.0722	1102.21	2.324
313.15 K, x1 = 0.1764	1124.71	3.845
313.15 K, x1 = 0.2145	1131.31	4.668
313.15 K, x1 = 0.3225	1146.47	7.347
313.15 K, x1 = 0.4189	1156.91	10.58
313.15 K, x1 = 0.607	1171.76	19.29
313.15 K, x1 = 0.6557	1173.63	21.66
313.15 K, x1 = 0.8283	1182.84	33.94
313.15 K, x1 = 0.9155	1186.65	42.14
313.15 K, x1 = 1	1190.27	51.79
323.15 K, x1 = 0.0722	1092.89	1.951
323.15 K, x1 = 0.1764	1116.01	3.137
323.15 K, x1 = 0.2145	1122.79	3.767
323.15 K, x1 = 0.3225	1138.33	5.742
323.15 K, x1 = 0.4189	1149.02	8.052
323.15 K, x1 = 0.607	1164.25	14.12
323.15 K, x1 = 0.6557	1166.3	15.79
323.15 K, x1 = 0.8283	1175.62	25.01
323.15 K, x1 = 0.9155	1179.53	29.99
323.15 K, x1 = 1	1183.24	38.04
333.15 K, x1 = 0.0722	1083.58	1.668
333.15 K, x1 = 0.1764	1107.34	2.615
333.15 K, x1 = 0.2145	1114.3	3.118
333.15 K, x1 = 0.3225	1130.22	4.618
333.15 K, x1 = 0.4189	1141.18	6.327
333.15 K, x1 = 0.607	1156.79	10.69
333.15 K, x1 = 0.6557	1158.97	11.78
333.15 K, x1 = 0.8283	1168.44	17.38
333.15 K, x1 = 0.9155	1172.45	20.96
333.15 K, x1 = 1	1176.25	24.97
343.15 K, x1 = 0.0722	1074.29	1.447
343.15 K, x1 = 0.1764	1098.7	2.222
343.15 K, x1 = 0.2145	1105.83	2.638
343.15 K, x1 = 0.3225	1122.16	3.801
343.15 K, x1 = 0.4189	1133.38	5.104
343.15 K, x1 = 0.607	1149.37	8.359
343.15 K, x1 = 0.6557	1151.6	8.977
343.15 K, x1 = 0.8283	1161.32	13.21
343.15 K, x1 = 0.9155	1165.43	15.78
343.15 K, x1 = 1	1169.32	18.49
353.15 K, x1 = 0.0722	1064.99	1.272
353.15 K, x1 = 0.1764	1090.08	1.918
353.15 K, x1 = 0.2145	1097.39	2.278
353.15 K, x1 = 0.3225	1114.12	3.195
353.15 K, x1 = 0.4189	1125.62	4.21
353.15 K, x1 = 0.607	1141.99	6.702
353.15 K, x1 = 0.6557	1144.28	7.182
353.15 K, x1 = 0.8283	1154.24	10.34
353.15 K, x1 = 0.9155	1158.44	12.24
353.15 K, x1 = 1	1162.44	14.37

C[S+](C)[O-] [dimethyl sulfoxide] + CCCCn1cc[n+](C)c1.F[B-](F)(F)F
x2 = 0
Conditions	mass density [kg/m3]	viscosity [mPa·s]
293.15 K	1100.76	2.21
298.15 K	1095.74	–
303.15 K	1090.73	1.843
313.15 K	1080.69	1.556
323.15 K	1070.66	1.337
333.15 K	1060.63	1.165
343.15 K	1050.58	1.028
353.15 K	1040.51	0.917

CCCCn1cc[n+](C)c1.F[B-](F)(F)F [1-butyl-3-methylimidazolium tetrafluoroborate] + OCCO
Conditions	mass density [kg/m3]	viscosity [mPa·s]
293.15 K, x1 = 0.0895	1133.64	19.89
293.15 K, x1 = 0.1758	1147.86	19.29
293.15 K, x1 = 0.3578	1167.8	23.44
293.15 K, x1 = 0.4397	1174.28	23.39
293.15 K, x1 = 0.6482	1187.63	39.69
293.15 K, x1 = 0.8121	1196.19	68.29
293.15 K, x1 = 1	1204.44	136.9
298.15 K, x1 = 0.0895	1129.95	–
298.15 K, x1 = 0.1758	1144.07	–
298.15 K, x1 = 0.3578	1163.96	–
298.15 K, x1 = 0.4397	1170.46	–
298.15 K, x1 = 0.6482	1183.91	–
298.15 K, x1 = 0.8121	1192.56	–
298.15 K, x1 = 1	1200.89	–
303.15 K, x1 = 0.0895	1126.26	12.66
303.15 K, x1 = 0.1758	1140.28	12.72
303.15 K, x1 = 0.3578	1160.12	15.48
303.15 K, x1 = 0.4397	1166.64	17.5
303.15 K, x1 = 0.6482	1180.21	26.17
303.15 K, x1 = 0.8121	1188.95	41.88
303.15 K, x1 = 1	1197.34	81.4
313.15 K, x1 = 0.0895	1118.86	8.881
313.15 K, x1 = 0.1758	1132.71	8.902
313.15 K, x1 = 0.3578	1152.49	10.87
313.15 K, x1 = 0.4397	1159.07	12.33
313.15 K, x1 = 0.6482	1172.85	18.29
313.15 K, x1 = 0.8121	1181.74	28.17
313.15 K, x1 = 1	1190.27	51.79
323.15 K, x1 = 0.0895	1111.43	6.422
323.15 K, x1 = 0.1758	1125.13	6.528
323.15 K, x1 = 0.3578	1144.89	8.034
323.15 K, x1 = 0.4397	1151.54	9.112
323.15 K, x1 = 0.6482	1165.56	13.41
323.15 K, x1 = 0.8121	1174.6	20.62
323.15 K, x1 = 1	1183.24	35.23
333.15 K, x1 = 0.0895	1103.95	4.88
333.15 K, x1 = 0.1758	1117.55	4.971
333.15 K, x1 = 0.3578	1137.35	6.16
333.15 K, x1 = 0.4397	1144.07	7.005
333.15 K, x1 = 0.6482	1158.32	10.2
333.15 K, x1 = 0.8121	1167.55	14.84
333.15 K, x1 = 1	1176.25	24.97
343.15 K, x1 = 0.0895	1096.42	3.807
343.15 K, x1 = 0.1758	1109.96	3.909
343.15 K, x1 = 0.3578	1129.84	4.87
343.15 K, x1 = 0.4397	1136.64	5.552
343.15 K, x1 = 0.6482	1151.14	8.019
343.15 K, x1 = 0.8121	1160.56	11.41
343.15 K, x1 = 1	1169.32	18.49
353.15 K, x1 = 0.0895	1088.83	2.872
353.15 K, x1 = 0.1758	1102.35	3.163
353.15 K, x1 = 0.3578	1122.35	3.932
353.15 K, x1 = 0.4397	1129.25	5.153
353.15 K, x1 = 0.6482	1144	6.479
353.15 K, x1 = 0.8121	1153.54	8.692
353.15 K, x1 = 1	1162.44	14.37
